According to ChEMBL document CHEMBL5625219, “Design, synthesis fusidic acid derivatives alleviate acute lung injury via inhibiting MAPK/NF-κB/NLRP3 pathway” (Eur J Med Chem, 2023):
Calls of active or inactive are those of the source. No cut-off for these calls is given here.

Legend:
Mus musculus [1] = assay: (§1) Anti-inflammatory activity in LPS-induced BALB/c mouse model of […] assessed as inhibition of LPS-induced increase in lung W/D ratio at 10 mg/kg, po preadministered with compound for 3 days followed by LPS stimulation for 6 hrs after 1 hrs compound administration on day 3; format: functional, organism-based; details: time 3.0 day
Mus musculus [2] = assay: (§2) In vivo inhibition of NFkappaB activation in LPS-induced BALB/c mouse model of […] assessed as inhibition of NFkappaB degradation at 10 mg/kg, po preadministered with compound for 3 days followed by LPS stimulation for 6 hrs after 1 hrs compound administration on day 3 by Western blot analysis; format: functional, organism-based; details: time 3.0 day
[3] = Cytotoxicity against mouse RAW264.7 cells assessed as inhibition of cell growth incubated for 24 hrs by MTT assay; format: toxicity, cell-based
Mus musculus [4] = assay: as §1, with “increase in TNF-alpha expression in BALF at 10” for “increase in lung W/D ratio at 10”, “day 3 by ELISA” for “day 3”; format: functional, organism-based; details: time 3.0 day
Mus musculus [5] = assay: as §2, with “inhibition of IkappaBalpha degradation at” for “inhibition of NFkappaB degradation at”; format: functional, organism-based; details: time 3.0 day
RAW264.7 = assay: Cytotoxicity against mouse RAW264.7 cells assessed as reduction in cell viability at 30 uM incubated for 24 hrs by MTT assay relative to control; format: toxicity, cell-based; details: raw264.7, 24 h
Mus musculus [6] = assay: as §1, with “increase in TNF-alpha expression in serum at 10” for “increase in lung W/D ratio at 10”, “day 3 by ELISA” for “day 3”; format: functional, organism-based; details: time 3.0 day
Mus musculus [7] = assay: as §1, with “increase in IL-6 expression in serum at 10” for “increase in lung W/D ratio at 10”, “day 3 by ELISA” for “day 3”; format: functional, organism-based; details: time 3.0 day
Mus musculus [8] = assay: as §1, with “increase in NO production in BALF at 10” for “increase in lung W/D ratio at 10”, “day 3 by Griess reagent based method” for “day 3”; format: functional, organism-based; details: time 3.0 day
Mus musculus [9] = assay: (§3) Anti-inflammatory activity in LPS-induced BALB/c mouse model of […] assessed as attenuation of inflammatory cell infiltration in lungs at 10 mg/kg, po preadministered with compound for 3 days followed by LPS stimulation for 6 hrs after 1 hrs compound administration on day 3 by H&E staining based analysis; format: functional, organism-based; details: time 3.0 day
Mus musculus [10] = assay: as §1, with “increase in NO production in serum at 10” for “increase in lung W/D ratio at 10”, “day 3 by Griess reagent based method” for “day 3”; format: functional, organism-based; details: time 3.0 day
Mus musculus [11] = assay: as §1, with “increase in IL-6 expression in BALF at 10” for “increase in lung W/D ratio at 10”, “day 3 by ELISA” for “day 3”; format: functional, organism-based; details: time 3.0 day
Mus musculus [12] = assay: as §3, with “lung alveolar hemorrhage” for “inflammatory cell infiltration in lungs”; format: functional, organism-based; details: time 3.0 day

Question: What does the source list for `CC(=O)O[C@H]1C[C@@]2(C)[C@@H](C[C@@H](O)[C@H]3[C@@]4(C)CC[C@@H](O)[C@@H](C)[C@@H]4CC[C@@]32C)/C1=C(\CCC=C(C)C)C(=O)O` [FUSIDIC ACID]?
Answer: Activity (Mus musculus [1]): Active; inhibition (Mus musculus [2]): Active; IC50 at 24 h [3]: 61.3 µM; Activity (Mus musculus [4]): Active; inhibition (Mus musculus [5]): Active; Activity (RAW264.7): 101.08%; Activity (Mus musculus [6]): Active; Activity (Mus musculus [7]): Active; Activity (Mus musculus [8]): Active; Activity (Mus musculus [9]): Active; Activity (Mus musculus [10]): Active; Activity (Mus musculus [11]): Active; Activity (Mus musculus [12]): Active
